Reference: ChEMBL document CHEMBL3351975, “Design and synthesis of new series of coumarin-aminopyran derivatives possessing potential anti-depressant-like activity” (Bioorg Med Chem Lett, 2015)
Activity calls are given as the source filed them. No cut-off for these calls is given here.

How the values were obtained:
Mus musculus [1] = experiment: Antidepressant-like activity in Swiss albino mouse assessed as decrease in immobility time at 0.5 mg/kg, ip measured for 5 mins by tail suspension test relative to control; format: functional, organism-based; parameters: dose 0.5 mg/kg
Mus musculus [2] = experiment: Antidepressant-like activity in Swiss albino mouse assessed as decrease in immobility time at 20 mg/kg, ip measured for 5 mins by forced swimming test relative to control; format: functional; details: route intraperitoneal
Mus musculus [3] = experiment: Neurotoxicity in Swiss albino mouse assessed as effect on locomotor activity measured as total distance travelled at 0.5 mg/kg, ip measured for 2 min at 30 min intervals for 90 mins duration by open field test relative to control; format: toxicity, organism-based; parameters: dose 0.5 mg/kg, route intraperitoneal; details: in vivo, 1.5 h
Mus musculus [4] = experiment: Antidepressant-like activity in Swiss albino mouse assessed as decrease in immobility time at 0.5 mg/kg, ip measured for 5 mins by forced swimming test relative to control; format: functional; details: route intraperitoneal
Mus musculus [5] = experiment: Neurotoxicity in Swiss albino mouse assessed as effect on locomotor activity measured as horizontal activity at 0.5 mg/kg, ip measured for 2 min at 30 min intervals for 90 mins duration by open field test relative to control; format: toxicity, organism-based; parameters: dose 0.5 mg/kg, route intraperitoneal; details: in vivo, 1.5 h
Mus musculus [6] = experiment: Antidepressant-like activity in Swiss albino mouse assessed as decrease in immobility time at 0.25 mg/kg, ip measured for 5 mins by forced swimming test relative to control; format: functional; details: for inhibition in vivo at 0.25 mg/kg: route intraperitoneal
Mus musculus [7] = experiment: Antidepressant-like activity in Swiss albino mouse assessed as decrease in immobility time at 1 mg/kg, ip measured for 5 mins by forced swimming test relative to control; format: functional, organism-based; parameters: dose 1 mg/kg
Mus musculus [8] = experiment: Neurotoxicity in Swiss albino mouse assessed as motor impairment effects at 1 mg/kg, ip measured for 30 to 180 mins duration by rotarod test relative to control; format: toxicity, organism-based; parameters: dose 1 mg/kg, route intraperitoneal; details: in vivo

Row | Compound | Activity (Mus musculus [1]) | inhibition in vivo at 0.5 mg/kg (Mus musculus [4]) | Activity (Mus musculus [7]) | also measured
1 | CNCCC(Oc1ccc(C(F)(F)F)cc1)c1ccccc1 (centres undefined) [FLUOXETINE] | Active | – | – | inhibition in vivo at 20 mg/kg (Mus musculus [2]): 69.8%
2 | COc1ccc(-c2cc3cc(C4C(C#N)=C(N)OC5=C4C(=O)CCC5)cc(C(C)C)c3oc2=O)cc1 (centres undefined) | Active | 69.7% | Active | Activity (Mus musculus [3]): Non-toxic; Activity (Mus musculus [5]): Non-toxic; inhibition (Mus musculus [6]): inactive; Activity (Mus musculus [8]): Non-toxic
3 | COc1cc(-c2cc3cc(C4C(C#N)=C(N)OC5=C4C(=O)CC(C)(C)C5)cc(C)c3oc2=O)cc(OC)c1OC (centres undefined) | – | 6.37% | – | –
4 | COc1ccc(-c2cc3cc(C4C(C#N)=C(N)OC5=C4C(=O)CCC5)cc(C(C)(C)C)c3oc2=O)cc1OC (centres undefined) | – | -16.6% | – | –
5 | COc1cc(-c2cc3cc(C4C(C#N)=C(N)OC5=C4C(=O)CC(C)(C)C5)cc(C(C)(C)C)c3oc2=O)cc(OC)c1OC (centres undefined) | – | 30.1% | – | –
6 | COc1cc(-c2cc3cc(C4C(C#N)=C(N)OC5=C4C(=O)CC(C)(C)C5)cc(C(C)C)c3oc2=O)cc(OC)c1OC (centres undefined) | – | 29.2% | Active | –
7 | COc1ccc(-c2cc3cc(C4C(C#N)=C(N)OC5=C4C(=O)CC(C)(C)C5)cc(C(C)C)c3oc2=O)cc1 (centres undefined) | Active | 64.9% | Active | Activity (Mus musculus [3]): Non-toxic; Activity (Mus musculus [5]): Non-toxic; inhibition (Mus musculus [6]): inactive; Activity (Mus musculus [8]): Non-toxic
8 | CCC(C)c1cc(C2C(C#N)=C(N)OC3=C2C(=O)CCC3)cc2cc(-c3cc(OC)c(OC)c(OC)c3)c(=O)oc12 (centres undefined) | Active | 56.1% | Active | Activity (Mus musculus [3]): Non-toxic; Activity (Mus musculus [5]): Non-toxic; inhibition (Mus musculus [6]): inactive; Activity (Mus musculus [8]): Non-toxic
9 | COc1ccc(-c2cc3cc(C4C(C#N)=C(N)OC5=C4C(=O)CC(C)(C)C5)cc(C(C)C)c3oc2=O)cc1OC (centres undefined) | Active | 86.6% | Active | Activity (Mus musculus [3]): Non-toxic; Activity (Mus musculus [5]): Non-toxic; inhibition in vivo at 0.25 mg/kg (Mus musculus [6]): 41%; Activity (Mus musculus [8]): Non-toxic
10 | COc1cc(-c2cc3cc(C4C(C#N)=C(N)OC5=C4C(=O)CCC5)cc(C(C)C)c3oc2=O)cc(OC)c1OC (centres undefined) | – | 31.9% | – | –
11 | COc1ccc(-c2cc3cc(C4C(C#N)=C(N)OC5=C4C(=O)CCC5)cc(C(C)(C)C)c3oc2=O)cc1 (centres undefined) | – | 30.6% | Active | –
12 | COc1ccc(-c2cc3cc(C4C(C#N)=C(N)OC5=C4C(=O)CC(C)(C)C5)cc(C(C)(C)C)c3oc2=O)cc1 (centres undefined) | – | 27.2% | – | –
13 | CN(C)CCCN1c2ccccc2CCc2ccccc21 | Active | – | – | –
14 | CCC(C)c1cc(C2C(C#N)=C(N)OC3=C2C(=O)CC(C)(C)C3)cc2cc(-c3cc(OC)c(OC)c(OC)c3)c(=O)oc12 (centres undefined) | – | 28.2% | Active | –
15 | COc1ccc(-c2cc3cc(C4C(C#N)=C(N)OC5=C4C(=O)CC(C)(C)C5)cc(C)c3oc2=O)cc1OC (centres undefined) | – | 10.4% | – | –
16 | CCC(C)c1cc(C2C(C#N)=C(N)OC3=C2C(=O)CC(C)(C)C3)cc2cc(-c3ccc(OC)cc3)c(=O)oc12 (centres undefined) | – | 26.9% | Active | –
17 | COc1cc(-c2cc3cc(C4C(C#N)=C(N)OC5=C4C(=O)CCC5)cc(C)c3oc2=O)cc(OC)c1OC (centres undefined) | – | 5.22% | – | –
18 | CCC(C)c1cc(C2C(C#N)=C(N)OC3=C2C(=O)CC(C)(C)C3)cc2cc(-c3ccc(OC)c(OC)c3)c(=O)oc12 (centres undefined) | Active | 57.4% | Active | Activity (Mus musculus [3]): Non-toxic; Activity (Mus musculus [5]): Non-toxic; inhibition in vivo at 0.25 mg/kg (Mus musculus [6]): 35%; Activity (Mus musculus [8]): Non-toxic
19 | CCC(C)c1cc(C2C(C#N)=C(N)OC3=C2C(=O)CCC3)cc2cc(-c3ccc(OC)cc3)c(=O)oc12 (centres undefined) | – | 35% | Active | –
20 | COc1ccc(-c2cc3cc(C4C(C#N)=C(N)OC5=C4C(=O)CC(C)(C)C5)cc(C(C)(C)C)c3oc2=O)cc1OC (centres undefined) | – | 22.5% | – | –
21 | COc1ccc(-c2cc3cc(C4C(C#N)=C(N)OC5=C4C(=O)CCC5)cc(C(C)C)c3oc2=O)cc1OC (centres undefined) | Active | 57.2% | Active | Activity (Mus musculus [3]): Non-toxic; Activity (Mus musculus [5]): Non-toxic; inhibition in vivo at 0.25 mg/kg (Mus musculus [6]): 49%; Activity (Mus musculus [8]): Non-toxic
22 | COc1cc(-c2cc3cc(C4C(C#N)=C(N)OC5=C4C(=O)CCC5)cc(C(C)(C)C)c3oc2=O)cc(OC)c1OC (centres undefined) | – | 5.33% | – | –
